Experimental data reported in publication PMC7156458, “Synthetic biology based construction of biological activity-related library of fungal decalin-containing diterpenoid pyrones” (Nature Communications, 2020).
Where two headings read alike, the source gives them in different places.

Assays:
DL1 cells = test: cytotoxicity in Drosophila DL1 cells; type: cell-based; settings: DL1 cells; for IC50: Drosophila melanogaster, cytotoxicity
Experimental: (§1) We screened the DDPs on the Drosophila assay system for cytotoxicity, inhibitory activity of innate immune signalling and insecticidal activity. The cytotoxicity of the DDPs was evaluated using two cell lines, embryonic macrophage-derived DL1 cells[58]–[60] and larval blood cell-derived l(2)mbn cells, and their IC50 values are listed in Supplementary Table 23.

[1] = cytotoxicity in Drosophila DL1 cells; type: cell-based; settings: Drosophila, DL1 cells (embryonic macrophage-derived), DL1 cells
Experimental: as §1

[2] = system: human immunodeficiency virus-1 (HIV-1); test: anti-HIV MAGI assay; type: cell-based; settings: Human immunodeficiency virus 1, MAGI, anti-HIV
From the text: We examined the inhibitory activities of DDPs against various species of bacteria (both gram-negative and gram-positive bacteria), fungi and viruses. […] In contrast, preliminary screening of the DDPs for anti-viral agents with hepatitis B virus (HBV), measles virus (MV), Epstein-Barr virus (EBV), herpes simplex virus (HSV) and human immunodeficiency virus-1 (HIV-1) indicated their selective inhibition of HIV.

MCF-7 cells = test: cell cytotoxic effects against MCF-7 cells (72 h), A490; type: cell-based, human; settings: MCF-7, 72 h
MAGI cells = test: cytotoxicity in the anti-HIV assay (CC50); type: cell-based; settings: single determinations
[3] = cytotoxicity in Drosophila l(2)mbn cells; type: cell-based; settings: Drosophila, l(2)mbn cells (larval blood cell-derived)
Experimental: as §1

l(2)mbn cells = test: cytotoxicity in Drosophila l(2)mbn cells; type: cell-based; settings: for Luminescence Raw1: replicate 1; for Luminescence Raw2: replicate 2; for IC50: Drosophila melanogaster, cytotoxicity
Experimental: as §1

[4] = average of two replicates, read-out: IC50 Average
[5] = replicate 1, read-out: IC50 (1)
[6] = replicate 2, read-out: IC50 (2)
[7] = replicate 1, relative to DMSO 1%, read-out: % viability, viability 1
[8] = replicate 2, relative to DMSO 1%, read-out: % viability, viability 2

Which “Luminescence Raw1” value (DL1 cells; 0.04 µM, replicate 1) does the source give for `C=C1CCC2C(C)(CCC=C(C)C)C(O)CCC2(C)C1Cc1c(OC)oc(C)c(C(=O)OC)c1=O` (centres unmarked) [Compound 14] here?
The value was 2252387.

What about the “Luminescence Raw2” value (DL1 cells; 0.04 µM, replicate 2) of the same compound?
Its value is 2365278.

And the “Luminescence Raw1” value (DL1 cells; 0.2 µM, replicate 1)?
The value was 1952676.

What about the “Luminescence Raw2” value (DL1 cells; 0.2 µM, replicate 2) of the same compound?
Its value is 1693730.

And the “Luminescence Raw1” value (DL1 cells; 1 µM, replicate 1)?
The value was 208403.

And the “Luminescence Raw2” value (DL1 cells; 1 µM, replicate 2)?
The value was 165136.

What about the “Luminescence Raw1” value (DL1 cells; 4 µM, replicate 1) of the same compound?
Its value is 117902.

What about the “Luminescence Raw2” value (DL1 cells; 4 µM, replicate 2) of the same compound?
Its value is 126556.

What about the “Luminescence Raw1” value (DL1 cells; 10 µM, replicate 1) of the same compound?
The value was 133046.

What about the “Luminescence Raw2” value (DL1 cells; 10 µM, replicate 2) of the same compound?
The value was 121508.

And the “Luminescence Raw1” value (DL1 cells; 20 µM, replicate 1)?
The value was 103480.

And the “Luminescence Raw2” value (DL1 cells; 20 µM, replicate 2)?
Its value is 86894.

What about the IC50 (DL1 cells; [4]) of the same compound?
Its IC50 is 438 nM.

And the IC50 (DL1 cells; average±SEM, read-out: IC50)?
Its IC50 is 440 ± 60 nM.

And the IC50 (DL1 cells; [5])?
Its IC50 is 502 nM.

And the IC50 (DL1 cells; [6])?
Its IC50 is 374 nM.

And the viability at 0.04 µM [1, 7]?
The viability at 0.04 µM was 109%.

And the viability at 0.04 µM [1, 8]?
The viability at 0.04 µM was 115%.

What about the viability at 0.2 µM [1, 7] of the same compound?
Its viability at 0.2 µM is 94.8%.

What about the viability at 0.2 µM [1, 8] of the same compound?
The viability at 0.2 µM was 82.2%.

And the viability at 1 µM [1, 7]?
Its viability at 1 µM is 10.1%.

What about the viability at 1 µM [1, 8] of the same compound?
The viability at 1 µM was 8.02%.

What about the viability at 4 µM [1, 7] of the same compound?
Its viability at 4 µM is 5.72%.

And the viability at 4 µM [1, 8]?
Its viability at 4 µM is 6.14%.

And the viability at 10 µM [1, 7]?
Its viability at 10 µM is 6.46%.

What about the viability at 10 µM [1, 8] of the same compound?
The viability at 10 µM was 5.9%.

And the viability at 20 µM [1, 7]?
The viability at 20 µM was 5.02%.

What about the viability at 20 µM [1, 8] of the same compound?
Its viability at 20 µM is 4.22%.

And the EC50 ([2]; MAGI assay, read-out: EC50)?
Its EC50 is under 200 nM.

And the EC50 ([2]; average of numeric determinations, read-out: Avg. EC50)?
Its EC50 is 45.7 nM.

What about the viability at 0.1 µM (MCF-7 cells; Homo sapiens, MCF7, 72 h, 0.1 µM (DMSO 0.002%), read-out: A490 (control =1) ave) of the same compound?
The viability at 0.1 µM was 74.8%.

What about the viability at 1 µM (MCF-7 cells; Homo sapiens, MCF7, 72 h, 1 µM (DMSO 0.02%), read-out: A490 (control =1) ave) of the same compound?
Its viability at 1 µM is 75.6%.

What about the viability at 10 µM (MCF-7 cells; Homo sapiens, MCF7, 72 h, 10 µM (DMSO 0.2%), read-out: A490 (control =1) ave) of the same compound?
The viability at 10 µM was 19.7%.

What about the A490 ave (MCF-7 cells; 0.1 µM (DMSO 0.002%), control 1.064) of the same compound?
Its A490 ave is 0.796.

What about the A490 ave (MCF-7 cells; 1 µM (DMSO 0.02%), control 1.104) of the same compound?
Its A490 ave is 0.834.

What about the A490 ave (MCF-7 cells; 10 µM (DMSO 0.2%), control 1.049) of the same compound?
The A490 ave was 0.207.

And the Cytotoxicity (MAGI cells)?
Its Cytotoxicity is over 10 µM.

What about the viability at 0.04 µM [3, 7] of the same compound?
The viability at 0.04 µM was 137%.

And the viability at 0.04 µM [3, 8]?
The viability at 0.04 µM was 114%.

And the viability at 0.2 µM [3, 7]?
Its viability at 0.2 µM is 136%.

What about the viability at 0.2 µM [3, 8] of the same compound?
Its viability at 0.2 µM is 147%.

What about the viability at 1 µM [3, 7] of the same compound?
The viability at 1 µM was 131%.

And the viability at 1 µM [3, 8]?
Its viability at 1 µM is 146%.

What about the viability at 4 µM [3, 7] of the same compound?
Its viability at 4 µM is 18.5%.

What about the viability at 4 µM [3, 8] of the same compound?
Its viability at 4 µM is 16%.

And the viability at 10 µM [3, 7]?
Its viability at 10 µM is 10.1%.

What about the viability at 10 µM [3, 8] of the same compound?
The viability at 10 µM was 9.05%.

And the viability at 20 µM [3, 7]?
Its viability at 20 µM is 7.49%.

And the viability at 20 µM [3, 8]?
Its viability at 20 µM is 6.87%.

And the “Luminescence Raw1” value (l(2)mbn cells; 0.04 µM)?
The value was 3506221.

And the “Luminescence Raw2” value (l(2)mbn cells; 0.04 µM)?
The value was 2917163.

And the “Luminescence Raw1” value (l(2)mbn cells; 0.2 µM)?
The value was 3483495.

And the “Luminescence Raw2” value (l(2)mbn cells; 0.2 µM)?
Its value is 3765235.

What about the “Luminescence Raw1” value (l(2)mbn cells; 1 µM) of the same compound?
Its value is 3358321.

And the “Luminescence Raw2” value (l(2)mbn cells; 1 µM)?
The value was 3748640.

And the “Luminescence Raw1” value (l(2)mbn cells; 4 µM)?
Its value is 473811.

And the “Luminescence Raw2” value (l(2)mbn cells; 4 µM)?
The value was 410710.

What about the “Luminescence Raw1” value (l(2)mbn cells; 10 µM) of the same compound?
The value was 260351.

What about the “Luminescence Raw2” value (l(2)mbn cells; 10 µM) of the same compound?
The value was 232227.

What about the “Luminescence Raw1” value (l(2)mbn cells; 20 µM) of the same compound?
The value was 192204.

And the “Luminescence Raw2” value (l(2)mbn cells; 20 µM)?
The value was 176340.

And the IC50 (l(2)mbn cells; [4])?
Its IC50 is 3740 nM.

And the IC50 (l(2)mbn cells; average±SEM, read-out: IC50)?
Its IC50 is 3740 ± 140 nM.

What about the IC50 (l(2)mbn cells; [5]) of the same compound?
Its IC50 is 3600 nM.

And the IC50 (l(2)mbn cells; [6])?
Its IC50 is 3880 nM.
